Test results taken from PMC6758725, “Novel 4-arylaminoquinazolines bearing N,N-diethyl(aminoethyl)amino moiety with antitumour activity as EGFR^wt-TK inhibitor” (Journal of Enzyme Inhibition and Medicinal Chemistry, 2019).
Like-named read-outs stand apart in the source and are kept apart here.

Tests used:
SW480 cells = assay: MTT antiproliferative assay, SW480 cells; type: cell-based; conditions: Homo sapiens, read-out: IC50 (µM) SW480
Method: (§1) Methyl thiazolyl tetrazolium (MTT) colorimetric assay (MTT assay)[17]^,[20] was used to evaluated the antiproliferative activities of these novel compounds against four human tumour cell lines including SW480, A549, A431 and NCI-H1975.
(§2) Figure 2. […] (A) SW480 cells, (B) A549 cells, (C) A431 cells, (D) NCI-H1975 cells. […] All error bars were represented in mean ± SE.
(§3) The effect of compounds on cell proliferation was determined using the MTT (3–(4,5-dimethylthiazol-2-yl)-2,5-diphenyltetrazolium bromide) method, which was carried out as previously described[12]^,[16].

A549 cells [1] = assay: MTT antiproliferative assay, A549 cells; type: cell-based; conditions: Homo sapiens, read-out: IC50 (µM) A549
Method: as §1, §2, §3

A431 cells = assay: MTT antiproliferative assay, A431 cells; type: cell-based; conditions: Homo sapiens, read-out: IC50 (µM) A431
Method: as §1, §2, §3

NCI-H1975 cells = assay: MTT antiproliferative assay, NCI-H1975 cells; type: cell-based; conditions: Homo sapiens, read-out: IC50 (µM) NCI-H1975
Method: as §1, §2, §3

A549 cells [2] = assay: Cell apoptosis analysis (Annexin V-FITC/PI, FACS); type: cell-based, human; conditions: for numbers of late apoptotic cells compared with control groups / numbers of necrosis cells compared with control groups: 48 h
Method: The process of controlled cellular death known as apoptosis has an important central role not only in normal homeostatic maintenance of tissues, but also in numerous diseases such as cancer, neurodegenerative, autoimmune, and cardiovascular diseases. After treatment by compound 6a for 48 h, the apoptosis of A549 cells were measured by fluorescence-activated cell sorter (FACS) analysis with annexin V-fluorescein isothiocyanate (FITC) and propidium iodide (PI) labelling.
Figure 4. Effect of compound 6a on cell apoptosis in A549 cells. (A) Representative density plots were obtained by FACS, (B) histograms of percentages of apoptotic cells in each group from (A) analysed by GraphPad Prism5.
(§4) Following treatment with different concentrations of compound 6a, the apoptosis of A549 cells was measured using Annexin V-FITC/PI apoptosis detection kit (KeyGEN BioTECH, Nanjing, China), according to the manufacturer’s instructions. Apoptosis of the treated cells was then detected by flow cytometry using ACEA NovoCyte.

A549 cells [3] = assay: Cell cycle analysis (PI, flow cytometry); type: cell-based, human; conditions: 48 h; for percentage of cells in G0/G1 phase: untreated 51.97%
Excerpt: Figure 5. Effect of compound 6a on the cell cycle phase distribution in A549 cells. (A) Representative profiles were obtained by FACS, (B) histograms of percentages of percentages of cell populations in the G0/G1, S and G2/M phase in each group from (A) analysed by GraphPad Prism5. […] Percentage of cells in G0/G1, S and G2/M phases were indicated. All values were expressed as mean ± SE. *p < .05, **p < .01 and ***p < .001 indicate significant differences compared with the control at the same phase.
as §4, with “distribution” for “apoptosis”, “cell cycle” for “A549 cells”, “cell cycle” for “Annexin V-FITC/PI apoptosis”, “The cell cycle” for “Apoptosis”

[4] = target: wild type epidermal growth factor receptor tyrosine kinase (EGFR^wt-TK) (Homo sapiens, UniProt P00533); assay: In vitro EGFR^wt tyrosine kinase ELISA assay
[5] = SW480, MTT, 72 h of treatment, mean ± SD of at least three independent experiments
[6] = A549, MTT, 72 h of treatment, mean ± SD of at least three independent experiments
[7] = A-431, MTT, 72 h of treatment, mean ± SD of at least three independent experiments
[8] = NCI-H1975, MTT, 72 h of treatment, mean ± SD of at least three independent experiments

Sequence of wild type epidermal growth factor receptor tyrosine kinase (EGFR^wt-TK) (P00533 25-1210): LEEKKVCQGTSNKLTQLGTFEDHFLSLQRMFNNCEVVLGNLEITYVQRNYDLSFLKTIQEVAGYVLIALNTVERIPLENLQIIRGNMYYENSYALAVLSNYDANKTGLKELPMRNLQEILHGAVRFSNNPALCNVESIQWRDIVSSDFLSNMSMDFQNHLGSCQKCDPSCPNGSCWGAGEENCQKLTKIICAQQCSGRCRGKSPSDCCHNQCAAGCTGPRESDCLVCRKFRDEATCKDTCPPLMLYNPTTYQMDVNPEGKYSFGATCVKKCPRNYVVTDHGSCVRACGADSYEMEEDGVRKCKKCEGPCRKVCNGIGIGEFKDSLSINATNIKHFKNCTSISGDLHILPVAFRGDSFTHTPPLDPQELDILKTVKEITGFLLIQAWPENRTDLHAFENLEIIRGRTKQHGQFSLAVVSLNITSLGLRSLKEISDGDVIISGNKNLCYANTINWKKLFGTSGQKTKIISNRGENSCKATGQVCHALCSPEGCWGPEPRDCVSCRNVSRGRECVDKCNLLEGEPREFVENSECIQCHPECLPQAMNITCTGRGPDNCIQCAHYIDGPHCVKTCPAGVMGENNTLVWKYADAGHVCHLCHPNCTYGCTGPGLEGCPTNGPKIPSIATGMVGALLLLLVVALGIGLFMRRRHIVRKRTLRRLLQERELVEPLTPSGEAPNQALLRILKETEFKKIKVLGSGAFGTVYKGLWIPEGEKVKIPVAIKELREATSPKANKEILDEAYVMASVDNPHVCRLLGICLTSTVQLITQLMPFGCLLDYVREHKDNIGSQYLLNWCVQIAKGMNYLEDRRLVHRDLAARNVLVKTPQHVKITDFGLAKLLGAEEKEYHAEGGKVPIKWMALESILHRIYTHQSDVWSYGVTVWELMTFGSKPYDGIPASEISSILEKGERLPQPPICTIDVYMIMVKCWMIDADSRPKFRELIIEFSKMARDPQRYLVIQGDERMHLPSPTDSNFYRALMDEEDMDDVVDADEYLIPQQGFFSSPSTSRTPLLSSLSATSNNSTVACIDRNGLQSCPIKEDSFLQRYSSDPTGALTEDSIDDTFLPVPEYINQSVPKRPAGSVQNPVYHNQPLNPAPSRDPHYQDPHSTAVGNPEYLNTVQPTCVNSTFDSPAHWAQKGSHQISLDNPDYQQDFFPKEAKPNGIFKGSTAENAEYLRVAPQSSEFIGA

Row | IC50 (SW480 cells; [5]) [µM] | IC50 (A549 cells [1]; [6]) [µM] | IC50 (A431 cells; [7]) [µM] | IC50 (NCI-H1975 cells; [8]) [µM] | melting point [°C] | SMILES | numbers of late apoptotic cells compared with control groups (A549 cells [2]; A549, 20 µM) | numbers of necrosis cells compared with control groups (A549 cells [2]; A549, 20 µM) | also measured
1 | 10.8 ± 1.34 | 12.1 ± 0.37 | 2.59 ± 0.15 | 15.6 ± 1.41 | 81.4 to 82.3 | C#Cc1cccc(Nc2ncnc3ccc(-c4ccc(CNCCN(CC)CC)o4)cc23)c1 [Compound 6c, 4–(3-ethynylphenylamino)-6-(5-((N,N-diethyl(aminoethyl))aminomethyl)furan-2-yl)quinazoline] | – | – | –
2 | 4.21 ± 1.16 | 4.1 ± 0.66 | 2.09 ± 1.01 | 5.13 ± 0.55 | 89.9 to 91.3 | C/C=C/c1ccc(Nc2ncnc3ccc(-c4ccc(CNCCN(CC)CC)o4)cc23)cc1 [Compound 6d, 6-(5-((N,N-diethylethyl)aminomethyl)furan-2-yl)-4–(4-(E)-(propen-1-yl)phenylamino)quinazoline] | – | – | –
3 | 14.9 ± 2.43 | 18 ± 0.62 | 3.92 ± 1.1 | 17.55 ± 0.03 | 98.3 to 99.8 | CCN(CC)CCNCc1ccc(-c2ccc3ncnc(Nc4ccc(F)c(Cl)c4)c3c2)o1 [Compound 6b, 4–(3-chloro-4-fluorophenylamino)-6-(5-((N,N-diethyl(aminoethyl))aminomethyl)furan-2-yl)quinazoline] | – | – | –
4 | – | – | – | – | – | CS(=O)(=O)CCNCc1ccc(-c2ccc3ncnc(Nc4ccc(OCc5cccc(F)c5)c(Cl)c4)c3c2)o1 [Lapatinib, reference compound] | significantly higher | significantly higher | IC50 (SW480 cells; SW480, 72 h): 12.6 ± 1.35 µM; IC50 (A549 cells [1]; A549, 72 h): 14.9 ± 1.21 µM; IC50 (A431 cells; A-431, 72 h): 4.8 ± 0.71 µM; IC50 (NCI-H1975 cells; NCI-H1975, 72 h): 12.7 ± 0.73 µM; percentage of cells in G2/M phase (A549 cells [3]; A549, 20 µM, PI): 19.41%; percentage of cells in S phase (A549 cells [3]; A549, 20 µM, PI): 19.93%

Row | SMILES | IC50 (SW480 cells; [5]) [µM] | IC50 (A549 cells [1]; [6]) [µM] | IC50 (A431 cells; [7]) [µM] | IC50 (NCI-H1975 cells; [8]) [µM] | melting point [°C] | numbers of late apoptotic cells compared with control groups (A549 cells [2]; A549, 20 µM) | numbers of necrosis cells compared with control groups (A549 cells [2]; A549, 20 µM) | also measured
5 | CCN(CC)CCNCc1ccc(-c2ccc3ncnc(Nc4ccc(OCc5cccc(F)c5)c(Cl)c4)c3c2)o1 [Compound 6a, 4–(3-chloro-4-(3-fluorobenzyloxy)phenylamino)-6–(5-((N,N-diethyl(aminoethyl))aminomethyl)furan-2-yl)quinazoline] | 6.67 ± 0.95 | 5.46 ± 0.19 | 2.21 ± 0.25 | 9.79 ± 0.07 | – | significantly higher | significantly higher | numbers of late apoptotic cells compared with control groups (A549 cells [2]; A549, 10 µM): significantly higher; early apoptosis of A549 cells (A549 cells [2]; A549, 48 h, tested concentrations 20-2.5 µM, versus control): not significantly influenced; percentage of cells in G0/G1 phase (A549 cells [3]; A549, 2.5 µM, PI): 54.15%; percentage of cells in G0/G1 phase (A549 cells [3]; A549, 5 µM, PI): 55.44%; percentage of cells in G0/G1 phase (A549 cells [3]; A549, 10 µM, PI): 51.77%; percentage of cells in G0/G1 phase (A549 cells [3]; A549, 20 µM, PI): 62.45%; effect on cell cycle of A549 cells (A549 cells [3]; A549, 20, 10, 5 and 2.5 µM): arrested in the G0/G1 phase; IC50 [4]: 0.0156 µM
